Assay: method code SF-AS, from DOI: 10.1016/j.jct.2013.01.022
Conditions: pH 7.4

logD	Compound
1.88	Cc1ccc(NC2=NCCC3(CCCCC3)S2)cc1
1.89	CC(=O)c1ccc(NC2=NCCC3(CCCCC3)S2)cc1
2.4	Clc1ccc(NC2=NCCC3(CCCCC3)S2)cc1
2.43	Brc1ccc(NC2=NCCC3(CCCCC3)S2)cc1

Second part, the molecule before the results:

Compound	logD
Cc1ccc(NC2=NCCC3(CCCCC3)S2)cc1Cl	2.54
CCc1ccc(NC2=NCCC3(CCCCC3)S2)cc1	2.22
c1ccc(NC2=NCCC3(CCCCC3)S2)cc1	1.27
CC(C)c1ccc(NC2=NCCC3(CCCCC3)S2)cc1	1.75
O=C(NC1=NCCC2(CCCCC2)S1)c1ccccc1	1.55
FC(F)(F)c1ccc(NC2=NCCC3(CCCCC3)S2)cc1	2.45

Reference: the SangsterLogP compilation
